Data on 31 compounds can be found in patent US20250288589A1, “PYRIDOPYRIMIDINES AND METHODS OF THEIR USE” (Kineta, Inc., priority 2021, published 2025).

The structures appear in SMILES notation. Structures can show the parent of a compound that is named as a salt. A value given as a limit tells only on which side of the number the result lay.

One may read the IC50 as the midpoint of a concentration-inhibition curve.

In this assay the target is T1, full-length human PIKFYVE (Homo sapiens, UniProt Q9Y2I7, L932S/Q1183K/Q995L/S1033A/S696N/T998S).
T1 construct: A full-length human PIKFYVE [1-2098(end) amino acids and S696N, L932S, Q995L, T998S, S1033A and Q1183K; purchased Carna Biosciences; host or cells: baculovirus expression system
T1 sequence (Q9Y2I7 whole entry S696N/L932S/Q995L/T998S/S1033A/Q1183K): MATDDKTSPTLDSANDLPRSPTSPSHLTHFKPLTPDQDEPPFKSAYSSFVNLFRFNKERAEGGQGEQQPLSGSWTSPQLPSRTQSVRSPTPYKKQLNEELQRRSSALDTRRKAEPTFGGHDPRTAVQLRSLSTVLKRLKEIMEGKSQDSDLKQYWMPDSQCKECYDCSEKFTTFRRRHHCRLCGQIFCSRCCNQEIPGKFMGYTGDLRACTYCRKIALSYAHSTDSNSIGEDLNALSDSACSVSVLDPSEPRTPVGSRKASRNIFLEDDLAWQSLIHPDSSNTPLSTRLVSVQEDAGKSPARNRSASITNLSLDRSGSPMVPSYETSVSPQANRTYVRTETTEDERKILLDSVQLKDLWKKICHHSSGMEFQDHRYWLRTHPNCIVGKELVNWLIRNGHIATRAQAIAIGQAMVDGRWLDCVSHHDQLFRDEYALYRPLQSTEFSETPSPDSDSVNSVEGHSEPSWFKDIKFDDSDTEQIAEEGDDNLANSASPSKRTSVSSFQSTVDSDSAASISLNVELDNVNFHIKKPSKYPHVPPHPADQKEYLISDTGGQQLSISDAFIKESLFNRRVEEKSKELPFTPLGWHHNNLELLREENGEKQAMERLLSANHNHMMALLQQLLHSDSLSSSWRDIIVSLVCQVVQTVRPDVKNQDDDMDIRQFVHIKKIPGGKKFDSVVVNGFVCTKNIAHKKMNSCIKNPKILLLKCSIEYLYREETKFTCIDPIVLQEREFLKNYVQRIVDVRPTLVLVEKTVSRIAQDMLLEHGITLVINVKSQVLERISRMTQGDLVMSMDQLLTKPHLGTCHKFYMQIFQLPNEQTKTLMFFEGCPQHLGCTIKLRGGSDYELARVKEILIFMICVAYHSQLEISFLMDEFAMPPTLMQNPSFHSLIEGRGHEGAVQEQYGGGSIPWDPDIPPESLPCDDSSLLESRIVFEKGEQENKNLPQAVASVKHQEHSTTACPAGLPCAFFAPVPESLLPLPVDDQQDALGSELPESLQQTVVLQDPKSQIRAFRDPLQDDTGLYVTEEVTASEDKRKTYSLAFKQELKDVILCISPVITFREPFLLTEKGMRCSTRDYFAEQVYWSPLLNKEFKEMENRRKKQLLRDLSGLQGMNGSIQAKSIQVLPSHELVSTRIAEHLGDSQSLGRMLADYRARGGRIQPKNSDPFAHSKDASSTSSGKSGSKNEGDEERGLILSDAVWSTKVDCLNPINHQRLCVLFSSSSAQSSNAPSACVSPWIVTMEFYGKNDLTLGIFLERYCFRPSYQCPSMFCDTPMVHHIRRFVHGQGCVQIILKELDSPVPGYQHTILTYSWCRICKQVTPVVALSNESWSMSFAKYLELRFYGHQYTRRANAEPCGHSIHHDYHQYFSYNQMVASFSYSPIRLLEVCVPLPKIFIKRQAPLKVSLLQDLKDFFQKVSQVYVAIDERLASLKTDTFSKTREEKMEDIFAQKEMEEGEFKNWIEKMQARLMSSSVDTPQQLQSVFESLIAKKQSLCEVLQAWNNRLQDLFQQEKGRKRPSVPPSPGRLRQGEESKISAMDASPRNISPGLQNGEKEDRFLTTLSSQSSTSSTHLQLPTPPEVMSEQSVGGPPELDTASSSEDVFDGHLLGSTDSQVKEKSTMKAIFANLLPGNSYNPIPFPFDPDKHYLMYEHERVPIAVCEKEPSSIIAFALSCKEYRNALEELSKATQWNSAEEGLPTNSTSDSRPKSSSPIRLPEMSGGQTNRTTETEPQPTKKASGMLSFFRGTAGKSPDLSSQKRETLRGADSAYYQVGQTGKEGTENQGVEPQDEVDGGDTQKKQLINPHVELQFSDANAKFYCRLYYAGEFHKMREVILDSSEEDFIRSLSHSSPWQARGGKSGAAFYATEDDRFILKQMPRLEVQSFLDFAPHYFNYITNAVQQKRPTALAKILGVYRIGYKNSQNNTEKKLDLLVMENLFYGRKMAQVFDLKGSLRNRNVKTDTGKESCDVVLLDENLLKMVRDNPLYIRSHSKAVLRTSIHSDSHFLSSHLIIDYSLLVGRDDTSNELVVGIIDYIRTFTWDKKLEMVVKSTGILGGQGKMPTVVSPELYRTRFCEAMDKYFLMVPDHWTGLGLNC
The assay is described as follows: PIKfyve biochemical assay (ADP-Glo Kinase assay, Carna Biosciences). The conditions noted are these: GST-PIKFYVE, 10 μM to 3 nM in duplicate, read-out: hPIKfyve IC50.
Text: (§1) PIKfyve Biochemical Assay. The biochemical PIKFyve inhibition assays were run by Carna Biosciences according to proprietary methodology based on the Promega ADP-Glo™ Kinase assay. A full-length human PIKFYVE [1-2098(end) amino acids and S696N, L932S, Q995L, T998S, S1033A and Q1183K of the protein having the sequence set forth in NCBI Reference Sequence No. NP_055855.2] was expressed as N-terminal GST-fusion protein (265 kDa) using baculovirus expression system. GST-PIKFYVE was purified by using glutathione sepharose chromatography and used in an ADP-Glo™ Kinase assay (Promega). Reactions were set up by adding the test compound solution, substrate solution, ATP solution and kinase solution, each at 4× final concentrations. Reactions were prepared with assay buffer (50 mM MOPS, 1 mM DTT, pH7.2), mixed, and incubated in black 384 well polystyrene plates for 1 hour at room temperature. ADP-Glo™ reagent was then added for 40 minutes, followed by kinase detection reagent for an additional 40 minutes. The kinase activity was evaluated by detecting relative light units on a luminescence plate reader. Samples were run in duplicate from 10 μM to 3 nM. […] IC50 values were calculated from concentration vs % inhibition curves by fitting to a four-parameter logistic curve.
as §1, with “The” for “PIKfyve Biochemical Assay. The”, “accession number” for “the protein having the sequence set forth in NCBI Reference Sequence No.”, “uM” for “μM”
On the technique in general: In ADP-Glo the light output rises with the ADP produced.
For the compound `COc1ccc(-c2ccn(-c3nc(N4CCOCC4)c4ncccc4n3)n2)cc1` [Compound 17, 4-(2-(3-(4-methoxyphenyl)-1H-pyrazol-1-yl)pyrido[3,2-d]pyrimidin-4-yl)morpholine], the IC50 is 100 to 1000 nM.

In the case of `Cc1ccc2c(c1)nnn2-c1nc(N2CCOCC2)c2ncccc2n1` [Compound 76, 4-(2-(5-methyl-1H-benzo[d][1,2,3]triazol-1-yl)pyrido[3,2-d]pyrimidin-4-yl)morpholine], the IC50 lay in the range of 100 to 1000 nM.

With `Oc1ccc(-c2ccccc2)nc1-c1nc(N2CCOCC2)c2ncccc2n1` [Compound 108, 2-(4-morpholinopyrido[3,2-d]pyrimidin-2-yl)-6-phenylpyridin-3-ol], the 50% inhibitory concentration (IC50) fell in the range of 10 to 100 nM.

With `COC(=O)c1cnc2c(N3CCOCC3)nc(-n3cc(-c4cccc(OC)c4)cn3)nc2c1` [Compound 43, methyl 2-(4-(3-methoxyphenyl)-1H-pyrazol-1-yl)-4-morpholinopyrido[3,2-d]pyrimidine-7-carboxylate], the IC50 was < 10 nM.

As for `c1ccc(-c2cncc(-c3nc(N4CCOCC4)c4ncccc4n3)n2)cc1` [Compound 97, 4-(2-(6-phenylpyrazin-2-yl)pyrido[3,2-d]pyrimidin-4-yl)morpholine], the IC50 lay in the range of 100 to 1000 nM.

As to `c1ccc(-c2cnn(-c3nc(N4CCOCC4)c4ncccc4n3)n2)cc1` [Compound 75, 4-(2-(4-phenyl-2H-1,2,3-triazol-2-yl)pyrido[3,2-d]pyrimidin-4-yl)morpholine hydrochloride], the IC50 was in the range of 10 to 100 nM.

For `COc1cnc(-c2cccc(C)c2)nc1-c1nc(N2CCOCC2)c2ncccc2n1` [Compound 102, 4-(2-(5-methoxy-2-m-tolylpyrimidin-4-yl)pyrido[3,2-d]pyrimidin-4-yl)morpholine], the IC50 lay in the range of 100 to 1000 nM.

In the case of `COc1ccc(-c2ccccc2)nc1-c1nc(N2CCOCC2)c2ncccc2n1` [Compound 107, 4-(2-(3-methoxy-6-phenylpyridin-2-yl)pyrido[3,2-d]pyrimidin-4-yl)morpholine], the IC50 lay within 1000 to 10000 nM.

For the compound `COc1cccc(-c2cnn(-c3nc(N4CCOCC4)c4ncc(C(=O)O)cc4n3)c2)c1` [Compound 44, 2-(4-(3-methoxyphenyl)-1H-pyrazol-1-yl)-4-morpholinopyrido[3,2-d]pyrimidine-7-carboxylic acid], the IC50 is 10 to 100 nM.

Regarding `c1cnc2c(N3CCOCC3)nc(-c3ccnc(-c4ccoc4)n3)nc2c1` [Compound 98, 4-(2-(2-(furan-3-yl)pyrimidin-4-yl)pyrido[3,2-d]pyrimidin-4-yl)morpholine], the IC50 is 1000 to 10000 nM.

Turning to `COc1cccc(-c2cnn(-c3nc(N4CCOCC4)c4ncccc4n3)c2)c1` [Compound 28, 4-(2-(4-(3-methoxyphenyl)-1H-pyrazol-1-yl)pyrido[3,2-d]pyrimidin-4-yl)morpholine], the IC50 was < 10 nM.

Consider `c1cnc2c(N3CCOCC3)nc(-c3ccnc(C4CCNCC4)n3)nc2c1` [Compound 84, 4-[2-[2-(4-piperidyl)pyrimidin-4-yl]pyrido[3,2-d]pyrimidin-4-yl]morpholine], for which the IC50 was > 10000 nM.

With `c1ccc(-c2nccc(-c3nc(N4CCOCC4)c4ncc(N5CCOCC5)cc4n3)n2)cc1` [Compound 95, 4,4′-(2-(2-phenylpyrimidin-4-yl)pyrido[3,2-d]pyrimidine-4,7-diyl)dimorpholine], the IC50 lay in the range of 10 to 100 nM.

As for `Oc1cccc(/C=N/Nc2nc(N3CCOCC3)c3ncccc3n2)c1` [Compound 114, (E)-3-((2-(4-morpholinopyrido[3,2-d]pyrimidin-2-yl)hydrazono)methyl)phenol], the half-maximal inhibitory concentration (IC50) lay within 100 to 1000 nM.

With `COc1cnc2c(N3CCOCC3)nc(-n3ccc(-c4cccc(C)c4)n3)nc2c1` [Compound 54, 4-(7-methoxy-2-(3-m-tolyl-1H-pyrazol-1-yl)pyrido[3,2-d]pyrimidin-4-yl)morpholine], the IC50 was < 10 nM.

With `c1cncc(-c2ccn(-c3nc(N4CCOCC4)c4ncccc4n3)n2)c1` [Compound 13, 4-(2-(3-(pyridin-3-yl)-1H-pyrazol-1-yl)pyrido[3,2-d]pyrimidin-4-yl)morpholine], the IC50 lay within 1000 to 10000 nM.

For the compound `c1ccc(-c2cnn(-c3nc(N4CCOCC4)c4ncc(C5CCOCC5)cc4n3)c2)cc1` [Compound 10, 4-[2-(4-phenylpyrazol-1-yl)-7-tetrahydropyran-4-yl-pyrido[3,2-d]pyrimidin-4-yl]morpholine], the IC50 was < 10 nM.

With `COc1cncc(-c2cnc3c(N4CCOCC4)nc(-c4ccn(CC(F)(F)F)n4)nc3c2)c1` [Compound 65, 4-(7-(5-methoxypyridin-3-yl)-2-(1-(2,2,2-trifluoroethyl)-1H-pyrazol-3-yl)pyrido[3,2-d]pyrimidin-4-yl)morpholine], the IC50 was in the range of 1000 to 10000 nM.

`CN1CCC(c2cnc3c(N4CCOCC4)nc(-n4ccc(-c5ccccc5)n4)nc3c2)CC1` [Compound 37, 4-(7-(1-methylpiperidin-4-yl)-2-(3-phenyl-1H-pyrazol-1-yl)pyrido[3,2-d]pyrimidin-4-yl)morpholine]: the IC50 was 10 to 100 nM.

For the compound `Cc1cnc2c(N3CCOCC3)nc(-n3ccc(-c4ccccc4)n3)nc2c1` [Compound 34, 4-(7-methyl-2-(3-phenyl-1H-pyrazol-1-yl)pyrido[3,2-d]pyrimidin-4-yl)morpholine], the IC50 was in the range of 10 to 100 nM.

`c1ccc(-c2nccc(-c3nc(N4CCOCC4)c4ncc(-c5cc[nH]n5)cc4n3)n2)cc1` [Compound 105, 4-(2-(2-phenylpyrimidin-4-yl)-7-(1H-pyrazol-3-yl)pyrido[3,2-d]pyrimidin-4-yl)morpholine]: the IC50 is 10 to 100 nM.

Consider `c1cnc2c(N3CCOCC3)nc(-c3n[nH]c4ccccc34)nc2c1` [Compound 69, 4-[2-(1H-indazol-3-yl)pyrido[3,2-d]pyrimidin-4-yl]morpholine], for which the IC50 is 1000 to 10000 nM.

On to `COc1ccc(Cc2ccn(-c3nc(N4CCOCC4)c4ncc(C5=CCOCC5)cc4n3)n2)cc1` [Compound 35, 4-(7-(3,6-dihydro-2H-pyran-4-yl)-2-(3-(4-methoxybenzyl)-1H-pyrazol-1-yl)pyrido[3,2-d]pyrimidin-4-yl)morpholine], for which the IC50 was 100 to 1000 nM.

As to `COc1cccc(-c2ccn(-c3nc(N4CCOCC4)c4ncc(C5=CCOCC5)cc4n3)n2)c1` [Compound 16, 4-(7-(3,6-dihydro-2H-pyran-4-yl)-2-(3-(3-methoxyphenyl)-1H-pyrazol-1-yl)pyrido[3,2-d]pyrimidin-4-yl)morpholine], the IC50 is < 10 nM.

In the case of `c1ccc(-c2ccn(-c3nc(N4CCOCC4)c4nc(C5CCOCC5)ccc4n3)n2)cc1` [Compound 9, 4-[2-(3-phenylpyrazol-1-yl)-6-tetrahydropyran-4-yl-pyrido[3,2-d]pyrimidin-4-yl]morpholine], the IC50 was in the range of 10 to 100 nM.

For `c1ccc(-c2ccn(-c3nc(N4CCOCC4)c4ncc(-c5ccncc5)cc4n3)n2)cc1` [Compound 48, 4-(2-(3-phenyl-1H-pyrazol-1-yl)-7-(pyridin-4-yl)pyrido[3,2-d]pyrimidin-4-yl)morpholine], the IC50 was in the range of 10 to 100 nM.

In the case of `O=c1[nH]c(-c2ccccc2)nn1-c1nc(N2CCOCC2)c2ncccc2n1` [Compound 82, 2-(4-morpholinopyrido[3,2-d]pyrimidin-2-yl)-5-phenyl-4H-1,2,4-triazol-3-one], the IC50 lay within 100 to 1000 nM.

Regarding `CC1COCCN1c1nc(-c2ccnc(-c3ccccc3)n2)nc2cccnc12` (stereo not shown) [Compound 106, 3-methyl-4-(2-(2-phenylpyrimidin-4-yl)pyrido[3,2-d]pyrimidin-4-yl)morpholine], the IC50 was in the range of 100 to 1000 nM.

Take `CN1CCN(c2cnc3c(N4CCOCC4)nc(-n4cc(-c5ccccc5)cn4)nc3c2)C(=O)C1` [Compound 56, 4-methyl-1-(4-morpholino-2-(4-phenyl-1H-pyrazol-1-yl)pyrido[3,2-d]pyrimidin-7-yl)piperazin-2-one]: the half-inhibitory concentration (IC50) was 10 to 100 nM.

Turning to `CC(C)c1ccn(-c2nc(N3CCOCC3)c3ncccc3n2)n1` [Compound 18, 4-(2-(3-isopropyl-1H-pyrazol-1-yl)pyrido[3,2-d]pyrimidin-4-yl)morpholine], the IC50 is > 10000 nM.

For `Cc1cc(-c2ccccc2)nn1-c1nc(N2CCOCC2)c2ncccc2n1` [Compound 39, 4-(2-(5-methyl-3-phenyl-1H-pyrazol-1-yl)pyrido[3,2-d]pyrimidin-4-yl)morpholine], the IC50 is > 10000 nM.
